As a reminder, the solubility is how much of the substance goes into solution per volume. In general, chromatographic logD refers to lipophilicity estimated from chromatographic retention. High values mean higher lipophilicity, low ones lower lipophilicity. One may read the logD as lipophilicity at a set pH, counting ionised and neutral species. A high value points to higher lipophilicity.

For data set [1], the target named is T1, Bromodomain testis-specific protein (Homo sapiens, UniProt Q58F21). Briefly: Inhibition of BRDT BD2 (unknown origin) after 30 mins by TR-FRET assay. In general terms: Time-resolved FRET reads energy transfer from a long-lived donor to a nearby acceptor.
Data set [2] can be described thus: Solubility of the compound in FaSSIF at pH 6.5 after 16 hrs by HPLC method. It counts as physicochemical.
The next data set concerns Blood. Briefly: Antiinflammatory activity in human whole blood assessed as inhibition of LPS-induced MCP1 release preincubated for 30 mins followed by LPS challenge measured after 24 hrs by immunoassay. It counts as functional, tissue-based.
The target in data set [3] is T2, Bromodomain-containing protein 3 (Homo sapiens, UniProt Q15059). Briefly: Inhibition of BRD3 BD2 (unknown origin) after 30 mins by TR-FRET assay.
Data set [4] in a line: Permeability of the compound by PAMPA. It counts as ADME. Conditions: read-out: permeability. In general terms: The PAMPA barrier holds no transporters, so it reflects passive diffusion.
The species entered for data set [5] is Homo sapiens. The data set can be described thus: Selectivity ratio of IC50 for BRDT BD1 (unknown origin) to IC50 for BRDT BD2 (unknown origin).
Data set [6] deals with Bromodomain-containing protein 4 (Homo sapiens, UniProt O60885, Y390A).
Data set [7] concerns the target T1, Bromodomain testis-specific protein. The data set can be described thus: Inhibition of BRDT BD1 (unknown origin) after 30 mins by TR-FRET assay.
Data set [8] can be described thus: Solubility of the compound in pH 7.4 phosphate buffered saline by chemiluminescent nitrogen detection method. Format: physicochemical.
The test system of a further data set is PBMC. The data set can be described thus: cells. Conditions: Homo sapiens, read-out: pIC50 (converted).
For data set [9], the species on record is Homo sapiens. The data set can be described thus: Selectivity ratio of IC50 for BRD3 BD1 (unknown origin) to IC50 for BRD3 BD2 (unknown origin).
Data set [10] addresses T3, Bromodomain-containing protein 2 (Homo sapiens, UniProt P25440). The data set can be described thus: Inhibition of human BRD2 BD2 after 30 mins by TR-FRET assay.
The target of data set [11] is T2, Bromodomain-containing protein 3. Briefly: Inhibition of BRD3 BD1 (unknown origin) after 30 mins by TR-FRET assay.
Data set [12] addresses T3, Bromodomain-containing protein 2. The data set can be described thus: Inhibition of human BRD2 BD1 after 30 mins by TR-FRET assay.
The target in data set [13] is Bromodomain-containing protein 4 (Homo sapiens, UniProt O60885, Y97A).
Data set [14] is filed under the species Homo sapiens. The data set can be described thus: Selectivity ratio of IC50 for human BRD2 BD1 to IC50 for human BRD2 BD2.
The nature of the next data set: physchem. Conditions: buffer, pH 7.4, logD.
Another data set has as its target T4, Peregrin (Homo sapiens, UniProt P55201).
T4 sequence (P55201 whole entry): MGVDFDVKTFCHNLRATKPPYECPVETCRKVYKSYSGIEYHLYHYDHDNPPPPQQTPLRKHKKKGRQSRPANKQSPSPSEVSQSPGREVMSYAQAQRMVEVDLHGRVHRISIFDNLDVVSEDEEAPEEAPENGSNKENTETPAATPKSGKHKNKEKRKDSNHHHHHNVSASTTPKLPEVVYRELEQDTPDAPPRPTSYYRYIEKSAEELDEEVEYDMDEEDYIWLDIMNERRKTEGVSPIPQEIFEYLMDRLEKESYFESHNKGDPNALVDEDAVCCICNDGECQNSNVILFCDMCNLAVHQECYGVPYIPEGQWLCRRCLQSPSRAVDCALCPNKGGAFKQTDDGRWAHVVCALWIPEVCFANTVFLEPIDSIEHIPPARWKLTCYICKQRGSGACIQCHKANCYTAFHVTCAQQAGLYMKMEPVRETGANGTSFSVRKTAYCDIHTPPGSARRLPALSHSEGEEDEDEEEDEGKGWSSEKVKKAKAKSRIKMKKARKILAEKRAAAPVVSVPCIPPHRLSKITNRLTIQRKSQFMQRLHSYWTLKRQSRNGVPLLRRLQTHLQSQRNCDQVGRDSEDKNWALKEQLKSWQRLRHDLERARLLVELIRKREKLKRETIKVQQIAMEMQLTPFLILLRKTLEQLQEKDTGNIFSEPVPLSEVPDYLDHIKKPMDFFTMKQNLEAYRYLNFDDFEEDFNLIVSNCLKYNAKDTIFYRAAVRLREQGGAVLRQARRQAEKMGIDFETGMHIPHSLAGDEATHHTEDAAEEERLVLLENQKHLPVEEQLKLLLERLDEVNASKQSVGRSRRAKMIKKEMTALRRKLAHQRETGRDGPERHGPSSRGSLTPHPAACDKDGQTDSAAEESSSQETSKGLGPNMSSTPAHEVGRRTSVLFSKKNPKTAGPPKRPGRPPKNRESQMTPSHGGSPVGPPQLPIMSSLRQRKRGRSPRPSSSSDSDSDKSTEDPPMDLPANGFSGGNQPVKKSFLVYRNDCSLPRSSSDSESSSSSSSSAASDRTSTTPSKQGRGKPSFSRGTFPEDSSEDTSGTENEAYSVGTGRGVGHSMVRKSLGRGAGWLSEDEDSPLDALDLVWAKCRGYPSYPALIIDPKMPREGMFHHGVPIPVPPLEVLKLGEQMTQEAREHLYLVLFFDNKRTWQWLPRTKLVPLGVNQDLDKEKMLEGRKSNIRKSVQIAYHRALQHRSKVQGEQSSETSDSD
Briefly: Displacement of Alexa 647 ligand from 6H-Flag-Tev-BRPF1 (622 to 738 residues) (unknown origin) expressed in Escherichia coli BL21 (DE3) cells after 30 mins by TR-FRET assay.

For data set [15] the following is noted: buffer, pH 7.4.
Description: (§1) Chromatographic hydrophobicity index, log D of the compound at pH 7.4 by HPLC method

≈ marks a conversion by molar mass, not a printed value.

T3 sequence (P25440 whole entry): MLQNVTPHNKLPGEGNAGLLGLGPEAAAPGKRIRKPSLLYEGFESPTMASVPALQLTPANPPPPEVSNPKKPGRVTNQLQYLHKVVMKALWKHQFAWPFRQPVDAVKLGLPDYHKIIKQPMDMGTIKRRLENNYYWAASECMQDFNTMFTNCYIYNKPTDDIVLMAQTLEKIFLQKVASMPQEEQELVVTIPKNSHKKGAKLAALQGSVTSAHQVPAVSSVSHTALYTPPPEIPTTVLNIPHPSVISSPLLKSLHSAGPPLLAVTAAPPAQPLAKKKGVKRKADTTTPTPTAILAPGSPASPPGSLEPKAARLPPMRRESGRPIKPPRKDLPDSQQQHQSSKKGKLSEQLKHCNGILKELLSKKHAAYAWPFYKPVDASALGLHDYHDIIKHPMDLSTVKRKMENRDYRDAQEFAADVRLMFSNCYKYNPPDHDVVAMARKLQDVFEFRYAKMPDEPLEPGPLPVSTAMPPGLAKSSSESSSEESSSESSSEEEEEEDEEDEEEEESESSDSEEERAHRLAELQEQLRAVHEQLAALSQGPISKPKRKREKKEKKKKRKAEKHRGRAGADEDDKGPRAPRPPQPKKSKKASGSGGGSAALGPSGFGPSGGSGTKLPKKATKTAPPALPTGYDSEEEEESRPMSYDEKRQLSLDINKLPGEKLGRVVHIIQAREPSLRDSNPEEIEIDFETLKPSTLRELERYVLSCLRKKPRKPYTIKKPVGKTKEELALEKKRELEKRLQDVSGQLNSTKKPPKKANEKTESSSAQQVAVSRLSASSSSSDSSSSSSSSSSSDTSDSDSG
T2 sequence (Q15059 whole entry, the tested form may be a part): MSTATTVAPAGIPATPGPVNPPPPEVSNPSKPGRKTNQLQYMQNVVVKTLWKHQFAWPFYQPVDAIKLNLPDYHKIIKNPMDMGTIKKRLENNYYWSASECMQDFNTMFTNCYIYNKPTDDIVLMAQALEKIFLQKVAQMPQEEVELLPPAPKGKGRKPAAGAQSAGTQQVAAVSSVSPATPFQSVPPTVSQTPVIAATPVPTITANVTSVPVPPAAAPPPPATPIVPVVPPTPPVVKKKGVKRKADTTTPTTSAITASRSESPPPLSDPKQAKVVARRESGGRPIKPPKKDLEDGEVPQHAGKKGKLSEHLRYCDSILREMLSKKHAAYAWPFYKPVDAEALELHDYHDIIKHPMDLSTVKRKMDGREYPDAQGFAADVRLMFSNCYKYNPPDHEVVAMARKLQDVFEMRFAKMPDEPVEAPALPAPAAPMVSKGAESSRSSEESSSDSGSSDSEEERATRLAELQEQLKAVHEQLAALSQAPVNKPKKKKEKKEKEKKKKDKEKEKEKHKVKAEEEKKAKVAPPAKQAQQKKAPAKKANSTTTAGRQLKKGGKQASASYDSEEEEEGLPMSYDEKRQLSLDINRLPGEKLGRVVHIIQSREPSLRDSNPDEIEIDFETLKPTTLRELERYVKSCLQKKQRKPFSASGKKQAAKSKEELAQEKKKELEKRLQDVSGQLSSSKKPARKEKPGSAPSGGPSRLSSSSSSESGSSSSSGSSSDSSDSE
Description for PBMC: Antiinflammatory activity in human PBMC assessed as inhibition of LPS-induced MCP1 release preincubated for 30 mins followed by LPS challenge measured after 24 hrs by immunoassay
Description for physchem: as §1

For the compound `CC(=O)N1c2ccc(-c3cnc(C(N)=O)nc3)cc2N(Cc2ccccc2CO)C[C@@H]1C1CC1`, the IC50 in [1] was 100 nM; with Blood, 398 nM; in [3] it was 31.6 nM; in data set [6] it was 2000 nM; in data set [7], 501 nM; with PBMC, 63.1 nM. In addition, the IC50 is 100 nM in data set [10]; 794 nM in data set [11]; 1580 nM in data set [12]; 50.1 nM in data set [13]; more than 100000 nM at Peregrin. Also, the solubility at 16 h in [2] is 18 µg/mL (≈ 39.3 µM). The Papp in data set [4] stood at 13.5 ×10⁻⁶ cm/s. Moreover, the figures for the Ratio IC50 in the data set listed under Homo sapiens [5], in the data set filed under Homo sapiens [9] and in the data set listed under Homo sapiens [14] were 5, 25 and 16, respectively. The compound further returned a solubility in data set [8] of 87 µM (≈ 39.8 µg/mL). In “physchem”, this compound had a chromatographic logD of 3.
Turning to `CC(=O)N1c2ccccc2N(Cc2ccccc2CO)CC1C1CC1` (single isomer, unassigned), the IC50 in [6] was 15800 nM; with PBMC, 1000 nM; in data set [13] it was 200 nM. Further, in [15], the logD is recorded as 4.7.

Values taken from ChEMBL document CHEMBL4184317, “Discovery of Tetrahydroquinoxalines as Bromodomain and Extra-Terminal Domain (BET) Inhibitors with Selectivity for the Second Bromodomain” (J Med Chem, 2018).
